The record followed here is patent US20260209297A1, “ANTIMICROBIAL PEPTIDES AND MODIFICATIONS THEREOF” (priority 2022, published 2026).

Converted amounts (≈) assume the structure as drawn. Positions of bridges follow the written chain, without caps; N, C: chain ends. Non-standard residues stand in square brackets, D forms with d. Residues, ends and D or L forms follow the SMILES beside them. No end group written: not given here. Dab = NCC[C@H](N)C(=O)O

The test system of experiment [1] is B. cinerea. Description: Semi-in planta gray mold assay on detached Nicotiana benthamiana leaves (drop inoculation). To be noted: for gray mold symptoms, drop inoculation assay: 3 and 6 μM. It counts as in vivo, Botrytis cinerea.
For experiment [2], the system named is Botrytis cinerea T-4. To be noted: Table 18.
Experiment [3] concerns B. cinerea. Description: MIC antifungal assay in SFM culture media (with or without added salts). The class given is cell-based, Botrytis cinerea.
Experiment [4] concerns F. graminearum. The class given is cell-based, Fusarium graminearum.
Experiment [5] concerns Alternaria alternata. Description: 96-well plate MIC assay with resazurin viability. The class given is cell-based. As to conditions: Table 19; unit not given (peptide concentrations in μM).
The subject of experiment [6] is Colletotrichum gloeosporioides. Description: 96-well plate MIC assay with resazurin viability. It counts as cell-based. As to conditions: Table 19; unit not given (peptide concentrations in μM).
Experiment [7] concerns Cercospora sojina. Description: 96-well plate MIC assay with resazurin viability. It counts as cell-based. As to conditions: Table 19; unit not given (peptide concentrations in μM).

Consider `CC[C@H](C)[C@H](NC(=O)[C@H](CCCNC(=N)N)NC(=O)[C@H](CS)NC(=O)[C@H](CCCNC(=N)N)NC(=O)CNC(=O)[C@@H](N)CO)C(=O)N[C@@H](CC(C)C)C(=O)N[C@@H](Cc1ccccc1)C(=O)N[C@@H](CCCNC(=N)N)C(=O)N[C@@H](CS)C(=O)N[C@@H](Cc1ccccc1)C(=O)N[C@@H](CS)C(=O)N[C@H](C(=O)N[C@@H](CCCCN)C(=O)N[C@@H](CC(N)=O)C(=O)N[C@@H](CS)C(N)=O)[C@@H](C)O` [GMA1C_V1] (H-SGRCRILFRCFCTKNC-NH2; N-terminus assumed), for which the “gray mold symptoms, drop inoculation assay” value in experiment [1] is listed as “failed to reduce disease symptoms”.
Take `CC[C@H](C)[C@@H]1NC(=O)[C@H](CCCNC(=N)N)NC(=O)[C@@H](NC(=O)[C@H](CCCNC(=N)N)NC(=O)CNC(=O)[C@@H](N)CO)CSSC[C@@H](C(N)=O)NC(=O)[C@H](CC(N)=O)NC(=O)[C@H](CCCCN)NC(=O)[C@H]([C@@H](C)O)NC(=O)[C@H](Cc2c[nH]c3ccccc23)NC(=O)[C@H](Cc2ccccc2)NC(=O)[C@H](Cc2c[nH]c3ccccc23)NC(=O)[C@H](CCCNC(=N)N)NC(=O)[C@H](Cc2ccccc2)NC(=O)[C@H](CC(C)C)NC1=O` [GMA1C_V2] (H-SGRCRILFRWFWTKNC-NH2; disulfide 4-16; N-terminus assumed): the “gray mold symptoms, drop inoculation assay, comparison within the peptide family” value in experiment [1] (1.5 μM) is given as “more effective”. Besides, the “gray mold symptoms, drop inoculation assay” value in experiment [1] is “completely abrogated gray mold symptoms”. Besides, in experiment [2], the “MIC (μM) (SFM + 2 mM CaCl2)” value came out at 3 µM, the “MIC (μM) (SFM + 100 mM KCl)” value is greater than 12 µM and the “MIC (μM) (SFM + 100 mM NaCl)” value was found to be 3 µM.
As for `CC[C@H](C)[C@@H]1NC(=O)[C@H](CCCNC(=N)N)NC(=O)[C@@H](NC(=O)[C@H](CCCNC(=N)N)NC(=O)CNC(=O)[C@@H](N)CO)CSSC[C@@H](C(N)=O)NC(=O)[C@H](CC(N)=O)NC(=O)[C@H](CCCCN)NC(=O)[C@H]([C@@H](C)O)NC(=O)[C@H](Cc2ccccc2)NC(=O)[C@H](Cc2ccc(O)cc2)NC(=O)[C@H](Cc2c[nH]c3ccccc23)NC(=O)[C@H](CCCNC(=N)N)NC(=O)[C@H](Cc2ccccc2)NC(=O)[C@H](CC(C)C)NC1=O` [GMA1C_V3] (H-SGRCRILFRWYFTKNC-NH2; disulfide 4-16; N-terminus assumed), in experiment [2], the “MIC (μM) SFM” value was 1.5 µM (≈ 3.07 µg/mL), the “MIC (μM) (SFM + 2 mM CaCl2)” value came to 6 µM, the “MIC (μM) (SFM + 100 mM KCl)” value was greater than 12 µM and the “MIC (μM) (SFM + 100 mM NaCl)” value was 3 µM.
Consider `C[C@@H](O)[C@H](NC(=O)[C@H](CS)NC(=O)[C@H](Cc1ccccc1)NC(=O)[C@H](CS)NC(=O)[C@H](CCCNC(=N)N)NC(=O)[C@H](CCCNC(=N)N)NC(=O)[C@H](CCCNC(=N)N)NC(=O)[C@H](Cc1ccccc1)NC(=O)CNC(=O)[C@H](CCCNC(=N)N)NC(=O)[C@H](CS)NC(=O)[C@H](CCCNC(=N)N)NC(=O)CN)C(=O)N[C@H](C(=O)N[C@@H](Cc1c[nH]cn1)C(=O)N[C@@H](CS)C(N)=O)[C@@H](C)O` [GMA4AC, reference compound] (H-GRCRGFRRRCFCTTHC-NH2), for which the “MIC (μM) Botrytis cinerea” value in experiment [3] (SFM, Table 9) was 6 µM. For the same compound, in experiment [2], the “MIC (μM) SFM” value amounted to 3 µM (≈ 5.88 µg/mL). Moreover, the “MIC (μM) Fusarium graminearum” value in experiment [4] was found to be 6 µM (≈ 11.8 µg/mL).
In the case of `C[C@@H](O)[C@H](NC(=O)[C@H](CS)NC(=O)[C@H](Cc1ccccc1)NC(=O)[C@H](CS)NC(=O)[C@H](CCCNC(=N)N)NC(=O)[C@H](CCCNC(=N)N)NC(=O)[C@H](CCCNC(=N)N)NC(=O)[C@H](Cc1ccccc1)NC(=O)CNC(=O)[C@H](CCCNC(=N)N)NC(=O)[C@H](CS)NC(=O)[C@H](CCCNC(=N)N)NC(=O)CNC(=O)CN)C(=O)N[C@H](C(=O)N[C@@H](Cc1c[nH]cn1)C(=O)N[C@@H](CS)C(N)=O)[C@@H](C)O` [GMA4C_AC, reference compound] (H-GGRCRGFRRRCFCTTHC-NH2; N-terminus assumed), the “antifungal activity against B. cinerea in presence of cations” value in experiment [3] (100 mM NaCl or 100 mM KCl) is “retain their antifungal activity”. Also, the “SFM + 2 mM CaCl2 MIC (μM)” value in experiment [3] (B. cinerea, Table 4) is on record as >6 (a few μM; in experiment [3] (Table 10) it was >6 (a few μM.
With `NCC[C@H](NC(=O)CNC(=O)[C@@H](N)Cc1ccccc1)C(=O)N[C@@H](CS)C(=O)N[C@@H](CCN)C(=O)NCC(=O)N[C@@H](Cc1ccccc1)C(=O)N[C@@H](CCN)C(=O)N[C@@H](CCN)C(=O)N[C@@H](CCN)C(=O)N[C@@H](CS)C(=O)N[C@@H](Cc1ccccc1)C(=O)N[C@@H](CS)C(=O)N[C@@H](Cc1c[nH]c2ccccc12)C(=O)N[C@@H](CCN)C(=O)N[C@@H](Cc1c[nH]c2ccccc12)C(=O)N[C@@H](CS)C(=O)O` [GMA4C_V5, FG(Dab)C(Dab)GF(Dab)(Dab)(Dab)CFCW(Dab)WC] (H-FG[Dab]C[Dab]GF[Dab][Dab][Dab]CFCW[Dab]WC-OH; N-terminus assumed), the “SFM + 2 mM CaCl2 MIC (μM)” value was >6 (very μM in experiment [3] (B. cinerea, Table 4) and >6 (very μM in experiment [3] (Table 10).
In the case of `CC[C@H](C)[C@H](NC(=O)[C@H](CCCNC(=N)N)NC(=O)[C@@H](NC(=O)[C@H](Cc1c[nH]c2ccccc12)NC(=O)[C@H](Cc1ccccc1)NC(=O)[C@H](Cc1c[nH]c2ccccc12)NC(=O)[C@H](CCCNC(=N)N)NC(=O)[C@H](CCCNC(=N)N)NC(=O)[C@H](CCCNC(=N)N)NC(=O)[C@H](Cc1ccccc1)NC(=O)CNC(=O)[C@H](CCCCN)NC(=O)[C@H](CS)NC(=O)[C@H](CCCNC(=N)N)NC(=O)CNC(=O)CN)[C@@H](C)O)C(=O)N[C@@H](CS)C(N)=O` [GMA4C_V6A] (H-GGRCKGFRRRWFWTRIC-NH2; N-terminus assumed), the “antifungal activity relative to the wild-type GMA4C_AC control, B. cinerea” value in experiment [3] (in vitro, low cationic conditions) was “four-fold increase”.
`C[C@H](NC(=O)CN)C(=O)N[C@@H](CS)C(=O)N[C@@H](Cc1c[nH]cn1)C(=O)N[C@@H](CCCNC(=N)N)C(=O)N[C@@H](CCC(N)=O)C(=O)NCC(=O)N[C@@H](Cc1ccccc1)C(=O)NCC(=O)N[C@@H](Cc1ccccc1)C(=O)N[C@@H](C)C(=O)N[C@@H](CS)C(=O)N[C@@H](Cc1ccccc1)C(=O)N[C@@H](CS)C(=O)N[C@@H](Cc1ccc(O)cc1)C(=O)N[C@@H](CCCCN)C(=O)N[C@@H](CCCCN)C(=O)N[C@@H](CS)C(N)=O` [GMA5CA_WT, reference compound] (H-GACHRQGFGFACFCYKKC-NH2; N-terminus assumed): the “MIC Alternaria alternata” value in experiment [5] came out at 6. The “MIC Colletotrichum gloeosporioides” value in experiment [6] is greater than 12. Moreover, the “MIC Cercospora sojina” value in experiment [7] is 12.
In the case of `CC(C)C[C@@H]1NC(=O)[C@@H](NC(=O)[C@H](C)NC(=O)CN)CSSC[C@@H](C(=O)N[C@@H](Cc2ccc(O)cc2)C(N)=O)NC(=O)[C@H](Cc2c[nH]cn2)NC(=O)[C@H](CCCNC(=N)N)NC(=O)[C@H](Cc2ccc(O)cc2)NC(=O)[C@H](Cc2ccc(O)cc2)NC(=O)[C@H](Cc2c[nH]c3ccccc23)NC(=O)[C@H](Cc2ccccc2)NC(=O)[C@H](Cc2c[nH]c3ccccc23)NC(=O)CNC(=O)[C@H](Cc2ccc(O)cc2)NC(=O)[C@H](Cc2c[nH]cn2)NC(=O)[C@H](CCCCN)NC(=O)[C@H](CO)NC(=O)[C@H](Cc2c[nH]cn2)NC(=O)[C@H](CCCNC(=N)N)NC(=O)[C@H](CC(N)=O)NC(=O)[C@H](CCCCN)NC1=O` [GMAOe1C_V3] (H-GACLKNRHSKHYGWFWYYRHCY-NH2; disulfide 3-21; N-terminus assumed), in experiment [1] (1.5 μM), the “gray mold symptoms, drop inoculation assay, comparison within the peptide family” value was “more effective”. In experiment [2], the “MIC (μM) SFM” value stood at 1.5 µM (≈ 4.31 µg/mL), the “MIC (μM) (SFM + 2 mM CaCl2)” value lay in the range of 3 to 6 µM and the “MIC (μM) (SFM + 100 mM NaCl)” value lay in the range of 2 to 3 µM.
Take `CC(C)C[C@@H]1NC(=O)[C@@H](NC(=O)[C@H](C)NC(=O)CN)CSSC[C@@H](C(=O)N[C@@H](Cc2ccc(O)cc2)C(N)=O)NC(=O)[C@H](Cc2c[nH]cn2)NC(=O)[C@H](CCCNC(=N)N)NC(=O)[C@H](Cc2ccc(O)cc2)NC(=O)[C@H](Cc2ccc(O)cc2)NC(=O)[C@H](Cc2c[nH]c3ccccc23)NC(=O)[C@H](Cc2ccccc2)NC(=O)[C@H](Cc2ccccc2)NC(=O)CNC(=O)[C@H](Cc2ccc(O)cc2)NC(=O)[C@H](Cc2c[nH]cn2)NC(=O)[C@H](CCCCN)NC(=O)[C@H](CO)NC(=O)[C@H](Cc2c[nH]cn2)NC(=O)[C@H](CCCNC(=N)N)NC(=O)[C@H](CC(N)=O)NC(=O)[C@H](CCCCN)NC1=O` [GMAOe1C_V4] (H-GACLKNRHSKHYGFFWYYRHCY-NH2; disulfide 3-21; N-terminus assumed): in experiment [2], the “MIC (μM) SFM” value stood at 1.5 µM (≈ 4.25 µg/mL) and the “MIC (μM) (SFM + 100 mM NaCl)” value amounted to 6 µM.
As for `CC(C)C[C@H](NC(=O)[C@H](CS)NC(=O)[C@H](C)NC(=O)CN)C(=O)N[C@@H](CCCCN)C(=O)N[C@@H](CC(N)=O)C(=O)N[C@@H](CCCNC(=N)N)C(=O)N[C@@H](Cc1c[nH]cn1)C(=O)N[C@@H](CO)C(=O)N[C@@H](CCCCN)C(=O)N[C@@H](Cc1c[nH]cn1)C(=O)N[C@@H](Cc1ccc(O)cc1)C(=O)NCC(=O)N[C@@H](CS)C(=O)N[C@@H](Cc1ccc(O)cc1)C(=O)N[C@@H](CS)C(=O)N[C@@H](Cc1ccc(O)cc1)C(=O)N[C@@H](Cc1ccc(O)cc1)C(=O)N[C@@H](CCCNC(=N)N)C(=O)N[C@@H](Cc1c[nH]cn1)C(=O)N[C@@H](CS)C(=O)N[C@@H](Cc1ccc(O)cc1)C(N)=O` [GMAOe1C_WT, reference compound] (H-GACLKNRHSKHYGCYCYYRHCY-NH2; N-terminus assumed), the “reducing gray mold disease symptoms (lesion sizes)” value in experiment [1] (detached N. benthamiana leaves, 1.5 μM, 3 μM and 6 μM, 48 h) is reported as “only effective at 6 μM”.
Consider “GRCRGFRRRCFCTTHC-NH2 (cysteine pairing not given here) [GMA4AC_WT, reference compound]”, for which the “MIC Alternaria alternata” value in experiment [5] was greater than 12. In addition, the “MIC Colletotrichum gloeosporioides” value in experiment [6] is greater than 12. For the same compound, in experiment [7], the “MIC Cercospora sojina” value is recorded as greater than 12.
